pIC50: −log10 of the molar value. Calls of active or inactive are those of the source. No cut-off for these calls is given here.
Assays:
[1] = Half life in Non human primate at 0.2 mg/kg, iv by LC-MS/MS analysis; assay type: ADME, organism-based; conditions: primates, in vivo
PBMC [2] = test: Effect on IKZF3 expression in human PBMC cells at 100 nM measured after 24 hrs by TMT based quantitative proteomics analysis; assay type: functional, cell-based
[3] = Volume of distribution at steady state in rat at 2 mg/kg, iv by LC-MS/MS analysis; assay type: ADME, organism-based; conditions: in vivo, read-out: Vdss
[4] = Clearance in mouse at 2 mg/kg, iv by LC-MS/MS analysis; assay type: ADME, organism-based; conditions: in vivo
OCI-Ly10 [5] = test: […] of […] expression in human OCI-Ly10 cells at 60 nM measured after 2 to 8 hrs by TMT based quantitative proteomics analysis; assay type: functional, cell-based; conditions: time 2-8 hrs
OCI-Ly10 [6] = test: Effect on GSPT1 expression in human OCI-Ly10 at 60 nM measured after 2 to 8 hrs by TMT based quantitative proteomics analysis; assay type: functional, cell-based; conditions: time 2-8 hrs
[7] = Metabolic stability in mouse liver microsomes assessed as intrinsic clearance; assay type: ADME, Microsome; conditions: read-out: CLH
[8] = biological target: T1, Protein cereblon/Zinc finger protein Aiolos (Homo sapiens, UniProt Q96SW2+Q9UKT9); test: PROTAC activity at CRBN/Aiolos in human OCI-Ly10 cells assessed as induction of Aiolos degradation measured after 24 hrs by MSD assay; assay type: cell-based
Target sequence in this assay (Q96SW2 whole entry): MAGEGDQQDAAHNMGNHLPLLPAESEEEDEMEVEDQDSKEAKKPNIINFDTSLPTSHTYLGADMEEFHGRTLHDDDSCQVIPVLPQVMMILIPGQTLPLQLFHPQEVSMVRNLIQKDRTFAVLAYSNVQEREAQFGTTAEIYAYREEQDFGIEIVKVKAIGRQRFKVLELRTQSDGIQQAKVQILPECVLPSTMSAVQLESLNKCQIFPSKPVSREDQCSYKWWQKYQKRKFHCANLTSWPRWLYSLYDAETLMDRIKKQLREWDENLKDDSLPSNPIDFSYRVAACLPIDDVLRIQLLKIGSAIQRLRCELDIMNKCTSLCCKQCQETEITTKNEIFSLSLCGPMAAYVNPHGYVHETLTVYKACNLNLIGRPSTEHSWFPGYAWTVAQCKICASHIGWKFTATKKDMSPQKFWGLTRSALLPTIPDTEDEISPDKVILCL
Target sequence in this assay (Q9UKT9 whole entry): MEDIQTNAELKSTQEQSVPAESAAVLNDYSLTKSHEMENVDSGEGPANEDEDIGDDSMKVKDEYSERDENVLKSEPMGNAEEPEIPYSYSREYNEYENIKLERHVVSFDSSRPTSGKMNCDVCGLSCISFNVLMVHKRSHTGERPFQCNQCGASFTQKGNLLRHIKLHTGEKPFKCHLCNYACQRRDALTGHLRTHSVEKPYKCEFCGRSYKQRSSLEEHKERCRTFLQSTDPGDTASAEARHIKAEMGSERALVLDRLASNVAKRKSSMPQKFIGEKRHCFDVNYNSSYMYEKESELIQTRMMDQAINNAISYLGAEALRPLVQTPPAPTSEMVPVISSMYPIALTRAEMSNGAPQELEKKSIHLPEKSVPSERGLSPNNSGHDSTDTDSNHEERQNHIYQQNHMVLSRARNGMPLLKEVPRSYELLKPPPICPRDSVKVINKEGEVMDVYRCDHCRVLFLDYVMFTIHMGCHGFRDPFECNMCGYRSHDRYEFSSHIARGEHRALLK

[9] = Passive permeability of the compound in wild type MDCK cells across apical to basolateral side at 1 uM measured for 120 mins by LC-MS/MS analysis; assay type: ADME, cell-based, Canis lupus familiaris; conditions: dog, read-out: permeability
PBMC [10] = test: Effect on ZFP276 expression in human PBMC cells at 100 nM measured after 24 hrs by TMT based quantitative proteomics analysis; assay type: functional, cell-based
[11] = Volume of distribution at steady state in dog at 0.2 mg/kg, iv by LC-MS/MS analysis; assay type: ADME, organism-based, Canis lupus familiaris; conditions: in vivo, read-out: Vdss
OCI-Ly10 [12] = test: Antiproliferative activity against human OCI-Ly10 cells measured after 4 days by CellTiter-Glo Luminescent Cell Viability Assay; assay type: functional, cell-based; conditions: Homo sapiens, OCI-Ly10, 96 h
[13] = Oral bioavailability in mouse at 10 mg/kg by LC-MS/MS analysis; assay type: ADME, organism-based; conditions: in vivo
[14] = AUC in dog at 2.1 mg/kg, po by LC-MS/MS analysis; assay type: ADME, organism-based, Canis lupus familiaris; conditions: in vivo
[15] = Metabolic stability in Non human primate hepatocyte assessed as intrinsic clearance measured per million cells; assay type: ADME, cell-based; conditions: primates, hepatocytes; read-out: CLH
Cereblon/Ikaros [16] = biological target: T2, Cereblon/Ikaros (Homo sapiens, UniProt Q96SW2+Q13422); test: PROTAC activity at CRBN/Ikaros in human OCI-Ly10 cells assessed as induction of Ikaros degradation measured after 24 hrs by MSD assay; assay type: cell-based
[17] = biological target: T3, Protein cereblon/Interleukin-1 receptor-associated kinase 4 (Homo sapiens, UniProt Q9NWZ3+Q96SW2); test: PROTAC activity at CRBN/IRAK4 in human OCI-Ly10 cells assessed as maximum degradation at 41 nM measured after 24 hrs; assay type: cell-based
Target sequence in this assay (Q96SW2 whole entry, looked up): as the sequence (Q96SW2 whole entry) above
Target sequence in this assay (Q9NWZ3 whole entry, looked up): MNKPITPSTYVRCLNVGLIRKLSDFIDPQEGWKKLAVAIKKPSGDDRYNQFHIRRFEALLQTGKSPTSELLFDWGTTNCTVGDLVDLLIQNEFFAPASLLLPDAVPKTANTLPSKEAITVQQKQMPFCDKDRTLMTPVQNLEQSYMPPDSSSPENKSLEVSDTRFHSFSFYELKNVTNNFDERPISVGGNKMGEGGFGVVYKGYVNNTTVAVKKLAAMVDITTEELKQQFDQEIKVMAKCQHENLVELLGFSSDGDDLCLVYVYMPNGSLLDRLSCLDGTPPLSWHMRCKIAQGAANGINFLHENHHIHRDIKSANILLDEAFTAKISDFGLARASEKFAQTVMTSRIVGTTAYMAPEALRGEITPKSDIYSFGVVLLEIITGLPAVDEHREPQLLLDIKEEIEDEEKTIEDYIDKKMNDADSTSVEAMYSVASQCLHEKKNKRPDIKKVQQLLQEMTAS

[18] = Metabolic stability in human hepatocyte assessed as intrinsic clearance measured per million cells; assay type: ADME, cell-based; conditions: hepatocytes, read-out: CLH
[19] = biological target: T1, Protein cereblon/Zinc finger protein Aiolos; test: PROTAC activity at CRBN/Aiolos in human OCI-Ly10 cells assessed as maximum degradation at 41 nM measured within 2 hrs; assay type: cell-based
Target sequence in this assay (Q96SW2 whole entry, looked up): as the sequence (Q96SW2 whole entry) above
Target sequence in this assay (Q9UKT9 whole entry, looked up): as the sequence (Q9UKT9 whole entry) above

PBMC [20] = test: Downregulation of LPXN expression in human PBMC cells at 100 nM measured after 24 hrs by TMT based quantitative proteomics analysis; assay type: functional, cell-based
[21] = Metabolic stability in dog liver microsomes assessed as intrinsic clearance; assay type: ADME, Canis lupus familiaris, Microsome; conditions: read-out: CLH
PBMC [22] = test: Effect on ZFP91 expression in human PBMC cells at 100 nM measured after 24 hrs by TMT based quantitative proteomics analysis; assay type: functional, cell-based
[23] = Clearance in dog at 0.2 mg/kg, iv by LC-MS/MS analysis; assay type: ADME, organism-based, Canis lupus familiaris; conditions: in vivo
[24] = Volume of distribution at steady state in Non human primate at 0.2 mg/kg, iv by LC-MS/MS analysis; assay type: ADME, organism-based; conditions: primates, in vivo, read-out: Vdss
PBMC [25] = test: Effect on GSPT1 expression in human PBMC at 100 nM measured after 24 hrs by TMT based quantitative proteomics analysis; assay type: functional, cell-based
OCI-Ly10 [26] = test: Downregulation of […] expression in human OCI-Ly10 cells at 60 nM measured after 2 to 8 hrs by TMT based quantitative proteomics analysis; assay type: functional, cell-based; conditions: time 2-8 hrs
OCI-Ly10 [27] = test: Antitumor activity in human patient derived OCI-LY10 cells xenografted in NPG mouse bearing MYD88-mutated DLBCL tumor containing a CD79 co-mutation model assessed as tumor growth regression at 20 mg/kg, po QD dosed measured after 3 to 5 days relative to control; assay type: functional; conditions: time 3-5 day
[28] = Oral bioavailability in Non human primate at 2.1 mg/kg by LC-MS/MS analysis; assay type: ADME, organism-based; conditions: primates, in vivo
PBMC [29] = test: Downregulation of IRAK4 expression in human PBMC cells at 100 nM measured after 24 hrs by TMT based quantitative proteomics analysis; assay type: functional, cell-based
OCI-Ly10 [30] = test: […] of IKZF3 expression in human OCI-Ly10 cells at 60 nM measured after 2 to 8 hrs by TMT based quantitative proteomics analysis; assay type: functional, cell-based; conditions: time 2-8 hrs
[31] = Clearance in Non human primate at 0.2 mg/kg, iv by LC-MS/MS analysis; assay type: ADME, organism-based; conditions: primates, in vivo
OCI-Ly10 [32] = test: Downregulation of FGD2 expression in human OCI-Ly10 cells at 60 nM measured after 2 to 8 hrs by TMT based quantitative proteomics analysis; assay type: functional, cell-based; conditions: time 2-8 hrs
[33] = Oral bioavailability in rat at 10 mg/kg by LC-MS/MS analysis; assay type: ADME, organism-based; conditions: in vivo
[34] = AUC in rat at 10 mg/kg, po by LC-MS/MS analysis; assay type: ADME, organism-based; conditions: in vivo, read-out: AUC
[35] = Half life in rat at 2 mg/kg, iv by LC-MS/MS analysis; assay type: ADME, organism-based; conditions: in vivo
OCI-Ly10 [36] = test: Antitumor activity against human OCI-LY10 cells xenografted in CB-17.SCID mouse model assessed as tumor growth regression at 3 mg/kg, po QD dosed measured after 38 days; assay type: functional, organism-based; conditions: time 38.0 day
PBMC [37] = test: Effect on IKZF1 expression in human PBMC cells at 100 nM measured after 24 hrs by TMT based quantitative proteomics analysis; assay type: functional, cell-based
[38] = Half life in dog at 0.2 mg/kg, iv by LC-MS/MS analysis; assay type: ADME, organism-based, Canis lupus familiaris; conditions: in vivo
PBMC [39] = test: Downregulation of FGD2 expression in human PBMC cells at 100 nM measured after 24 hrs by TMT based quantitative proteomics analysis; assay type: functional, cell-based
[40] = Oral bioavailability in dog at 2.1 mg/kg by LC-MS/MS analysis; assay type: ADME, organism-based, Canis lupus familiaris; conditions: in vivo
[41] = Metabolic stability in rat hepatocyte assessed as intrinsic clearance measured per million cells; assay type: ADME, cell-based; conditions: hepatocytes, read-out: CLH
[42] = Metabolic stability in dog hepatocyte assessed as intrinsic clearance measured per million cells; assay type: ADME, cell-based, Canis lupus familiaris; conditions: hepatocytes, read-out: CLH
[43] = biological target: T3, Protein cereblon/Interleukin-1 receptor-associated kinase 4; test: PROTAC activity at CRBN/IRAK4 in human OCI-Ly10 cells assessed as induction of IRAK4 degradation measured after 24 hrs by MSD assay; assay type: cell-based
Target sequence in this assay (Q9NWZ3 whole entry): as the sequence (Q9NWZ3 whole entry, looked up) above
Target sequence in this assay (Q96SW2 whole entry): as the sequence (Q96SW2 whole entry) above

[44] = Clearance in rat at 2 mg/kg, iv by LC-MS/MS analysis; assay type: ADME, organism-based; conditions: in vivo
[45] = AUC in Non human primate at 2.1 mg/kg, po by LC-MS/MS analysis; assay type: ADME, organism-based; conditions: primates, in vivo
[46] = AUC in mouse at 10 mg/kg, po by LC-MS/MS analysis; assay type: ADME, organism-based; conditions: in vivo
Cereblon/Ikaros [47] = biological target: T2, Cereblon/Ikaros; test: PROTAC activity at CRBN/Ikaros in human OCI-Ly10 cells assessed as maximum degradation at 41 nM measured within 2 hrs; assay type: cell-based
OCI-Ly10 [48] = test: Antitumor activity against human OCI-LY10 cells xenografted in CB-17.SCID mouse model assessed as tumor growth regression at 10 to 30 mg/kg, po QD dosed measured after 38 days relative to control; assay type: functional; conditions: dose 10-30 mg/kg, time 38 day
PBMC [49] = test: Effect on WIZ expression in human PBMC cells at 100 nM measured after 24 hrs by TMT based quantitative proteomics analysis; assay type: functional, cell-based
[50] = Volume of distribution at steady state in mouse at 2 mg/kg, iv by LC-MS/MS analysis; assay type: ADME, organism-based; conditions: in vivo, read-out: Vdss
[51] = Half life in mouse at 2 mg/kg, iv by LC-MS/MS analysis; assay type: ADME, organism-based; conditions: in vivo
OCI-Ly10 [52] = test: Downregulation of LPXN expression in human OCI-Ly10 cells at 60 nM measured after 2 to 8 hrs by TMT based quantitative proteomics analysis; assay type: functional, cell-based; conditions: time 2-8 hrs
[53] = Metabolic stability in Non human primate liver microsomes assessed as intrinsic clearance; assay type: ADME, Microsome; conditions: primates, read-out: CLH

T2 sequence (Q96SW2 whole entry): as above
T2 sequence (Q13422 whole entry): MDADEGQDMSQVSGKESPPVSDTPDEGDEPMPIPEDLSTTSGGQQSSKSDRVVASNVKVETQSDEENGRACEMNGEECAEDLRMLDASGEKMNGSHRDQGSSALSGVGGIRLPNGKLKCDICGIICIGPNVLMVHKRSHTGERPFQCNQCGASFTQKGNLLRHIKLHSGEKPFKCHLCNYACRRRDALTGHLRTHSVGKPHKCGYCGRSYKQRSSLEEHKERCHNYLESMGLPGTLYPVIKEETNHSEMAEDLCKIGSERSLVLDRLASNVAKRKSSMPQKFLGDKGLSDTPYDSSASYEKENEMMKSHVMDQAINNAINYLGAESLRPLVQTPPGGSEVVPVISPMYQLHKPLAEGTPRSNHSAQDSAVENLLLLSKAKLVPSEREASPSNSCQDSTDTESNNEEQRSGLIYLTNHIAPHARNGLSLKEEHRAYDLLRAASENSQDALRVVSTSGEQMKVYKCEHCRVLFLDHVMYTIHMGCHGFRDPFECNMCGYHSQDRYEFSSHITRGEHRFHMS

SMILES: CC(C)(O)c1cc2nc([C@H]3CC[C@H](CN4CC5(CC(CCNc6cccc7c6C(=O)N(C6CCC(=O)NC6=O)C7=O)C5)C4)CC3)sc2cc1NC(=O)c1cccc(C(F)(F)F)n1 (stereo partly drawn) [ZOMIRADOMIDE]
- half-life [1]: 984 min
- Activity (PBMC [2]): Active
- Vd [3]: 15 L/kg
- clearance [4]: 11 mL/min/kg
- Activity (OCI-Ly10 [5]): Active
- Activity (OCI-Ly10 [6]): inactive
- microsomal CLint [7]: 4 µL/min/mg
- DC50 [8]: 1 nM
- Papp A→B at 2 h, 1 µM [9]: 1.3 ×10⁻⁶ cm/s
- Activity (PBMC [10]): Active
- Vd [11]: 29 L/kg
- pIC50 (OCI-Ly10 [12]): 7.96
- bioavailability [13]: 19%
- AUC [14]: 0.46 µM·h
- hepatocyte CLint [15]: 2.7 µL/min/1e6 cells
- DC50 (Cereblon/Ikaros [16]): 1 nM
- Activity [17]: Active
- hepatocyte CLint [18]: 3.5 µL/min/1e6 cells
- Activity [19]: Active
- Activity (PBMC [20]): Active
- microsomal CLint [21]: 4.2 µL/min/mg
- Activity (PBMC [22]): Active
- clearance [23]: 14 mL/min/kg
- Vd [24]: 5.8 L/kg
- Activity (PBMC [25]): inactive
- Activity (OCI-Ly10 [26]): Active
- Activity (OCI-Ly10 [27]): 100%
- bioavailability [28]: 42%
- Activity (PBMC [29]): Active
- Activity (OCI-Ly10 [30]): Active
- clearance [31]: 4.5 mL/min/kg
- Activity (OCI-Ly10 [32]): Active
- bioavailability [33]: 15%
- AUC [34]: 2.7 µM·h
- half-life [35]: 1020 min
- Activity (OCI-Ly10 [36]): Active
- Activity (PBMC [37]): Active
- half-life [38]: 1680 min
- Activity (PBMC [39]): Active
- bioavailability [40]: 21%
- hepatocyte CLint [41]: 0.8 µL/min/1e6 cells
- hepatocyte CLint [42]: 2.3 µL/min/1e6 cells
- DC50 [43]: 6 nM
- clearance [44]: 9.1 mL/min/kg
- AUC [45]: 3.6 µM·h
- AUC [46]: 2.8 µM·h
- Activity (Cereblon/Ikaros [47]): Active
- Activity (OCI-Ly10 [48]): 100%
- Activity (PBMC [49]): Active
- Vd [50]: 7.5 L/kg
- half-life [51]: 516 min
- Activity (OCI-Ly10 [52]): Active
- microsomal CLint [53]: 8.6 µL/min/mg
